Assay results published in the Kinase Knowledgebase extract (Sharma et al. 2016).
pIC50: −log10 of the molar value.

Columns and labels:
MAPK14 (human) [1] = target: MAPK14 (human) (UniProt Q16539); test: Inhibition of MAPK14 Kinase Activity by PHAS-I Assay; details: for inhibition: concentration not given here
MAPK14 (human) [2] = target: MAPK14 (human) (UniProt Q16539); test: Inhibition of LPS Stimulated TNF Production by U937 Cells; details: for inhibition: concentration not given here

Chain of MAPK14 (human) (Q16539 whole entry, looked up): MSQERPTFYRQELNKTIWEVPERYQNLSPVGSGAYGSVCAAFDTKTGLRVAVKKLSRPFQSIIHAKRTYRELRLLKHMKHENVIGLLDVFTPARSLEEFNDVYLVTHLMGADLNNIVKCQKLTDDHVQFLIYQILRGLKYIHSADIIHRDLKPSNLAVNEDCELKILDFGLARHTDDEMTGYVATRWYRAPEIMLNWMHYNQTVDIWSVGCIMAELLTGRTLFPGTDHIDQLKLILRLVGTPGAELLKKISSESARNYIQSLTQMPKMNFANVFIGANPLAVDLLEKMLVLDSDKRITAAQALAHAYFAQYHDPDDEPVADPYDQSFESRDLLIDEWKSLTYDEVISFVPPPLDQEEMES

SMILES	inhibition (MAPK14 (human) [1]) [%]	other results
COCC(=O)NCCCc1[nH]nc(-c2ccc(F)cc2)c1-c1ccncc1	78	–
Cc1c(-c2ccncc2)c(-c2ccc(F)cc2)nn1CC(=O)Nc1ccccc1	85	–
O=C(NCCc1[nH]nc(-c2ccc(F)cc2)c1-c1ccncc1)C1CC1	85	–
Cc1c(-c2ccncc2)c(-c2ccc(F)cc2)nn1CC(=O)N1CCSC1c1ccco1 (stereo not drawn)	78	–
O=C(Nc1ccccc1F)N[C@@H](Cc1ccccc1)c1[nH]nc(-c2ccc(F)cc2)c1-c1ccncc1	–	pIC50 (MAPK14 (human) [1]): 4.85
O=C(NCCCc1[nH]nc(-c2ccc(F)cc2)c1-c1ccncc1)NCCc1ccccc1	82	–
CNCCCNC(=O)CSc1[nH]nc(-c2ccc(Cl)cc2)c1-c1ccncc1	–	pIC50 (MAPK14 (human) [1]): 5.78
O=C(NCCCc1[nH]nc(-c2ccc(F)cc2)c1-c1ccncc1)c1ccccn1	69	–
CC[C@H](C)[C@H](NC(=O)Cn1nc(-c2ccc(F)cc2)c(-c2ccncc2)c1C)C(=O)OC	38	–
CC(=O)OC(C)(C)C(=O)NCCCc1[nH]nc(-c2ccc(F)cc2)c1-c1ccncc1	74	–
CCN(CC)CCN(CCN(CC)CC)C(=O)Cn1nc(-c2ccc(F)cc2)c(-c2ccncc2)c1C	47	–
Cc1c(-c2ccncc2)c(-c2ccc(F)cc2)nn1CC(=O)NC1CCCCCC1	82	–
CCCS(=O)(=O)NCCCc1[nH]nc(-c2ccc(F)cc2)c1-c1ccncc1	92	–
Cc1c(-c2ccncc2)c(-c2ccc(F)cc2)nn1CC(=O)Nc1ccccc1Oc1ccc(Cl)cc1	86	–
CCN(CC)C(=O)N[C@@H](Cc1ccccc1)c1[nH]nc(-c2ccc(F)cc2)c1-c1ccncc1	–	pIC50 (MAPK14 (human) [1]): 5.66
Cc1c(-c2ccncc2)c(-c2ccc(F)cc2)nn1CC(=O)Nc1cc(C(F)(F)F)cc(C(F)(F)F)c1	79	–
Cc1c(-c2ccncc2)c(-c2ccc(F)cc2)nn1CC(=O)Nc1ccc(OCc2ccccc2)cc1	82	–
COc1ccc(OC)c(NC(=O)Cn2nc(-c3ccc(F)cc3)c(-c3ccncc3)c2C)c1	85	–
CCN(CC)CC(C)NC(=O)Cn1nc(-c2ccc(F)cc2)c(-c2ccncc2)c1C (stereo not drawn)	46	–
CCc1cccc(CC)c1NC(=O)Cn1nc(-c2ccc(F)cc2)c(-c2ccncc2)c1C	70	–
Cc1c(-c2ccncc2)c(-c2ccc(F)cc2)nn1CC(=O)N(C)CCc1ccccc1	32	–
O=C(NCc1[nH]nc(-c2ccc(F)cc2)c1-c1ccncc1)c1cc(Cl)ccc1F	73	–
COc1ccc(NC(=O)NCCCc2[nH]nc(-c3ccc(F)cc3)c2-c2ccncc2)cc1	82	–

SMILES	inhibition (MAPK14 (human) [1]) [%]	other results
CCCCCCOc1ccc(NC(=O)Cn2nc(-c3ccc(F)cc3)c(-c3ccncc3)c2C)cc1	80	–
COCCN(CC1CCCCC1)C(=O)Cn1nc(-c2ccc(F)cc2)c(-c2ccncc2)c1C	63	–
Clc1ccc(-c2n[nH]c(SCOC3CCCCO3)c2-c2ccncc2)cc1 (stereo not drawn)	–	pIC50 (MAPK14 (human) [1]): 6.96
O=C(NCCCc1[nH]nc(-c2ccc(F)cc2)c1-c1ccncc1)c1ccccc1I	66	–
CCOC(=O)c1cc(-c2ccc(NC(=O)Cn3nc(-c4ccc(F)cc4)c(-c4ccncc4)c3C)cc2)oc1C	87	–
O=C(NCc1[nH]nc(-c2ccc(F)cc2)c1-c1ccncc1)c1cc(Cl)cc(Cl)c1	–	pIC50 (MAPK14 (human) [1]): 5.57
CC(=O)N[C@@H](C)c1[nH]nc(-c2ccc(F)cc2)c1-c1ccncc1	–	pIC50 (MAPK14 (human) [1]): 6.34
COc1ccccc1C(=O)NCCCc1[nH]nc(-c2ccc(F)cc2)c1-c1ccncc1	68	–
Cc1c(-c2ccncc2)c(-c2ccc(F)cc2)nn1CC(=O)Nc1cccc(F)c1	92	–
Cc1c(-c2ccncc2)c(-c2ccc(F)cc2)nn1CC(=O)NC1CCC1	81	–
O=S(=O)(NCc1[nH]nc(-c2ccc(F)cc2)c1-c1ccncc1)c1cc(Br)c(Br)s1	77	–
O=C(NCCCc1[nH]nc(-c2ccc(F)cc2)c1-c1ccncc1)c1ccccc1	78	–
CC(C)COC(=O)NCCc1[nH]nc(-c2ccc(F)cc2)c1-c1ccncc1	75	–
Cc1c(-c2ccncc2)c(-c2ccc(F)cc2)nn1CC(=O)Nc1cc([N+](=O)[O-])cc([N+](=O)[O-])c1	90	–
C=CCNC(=O)NCCCc1[nH]nc(-c2ccc(F)cc2)c1-c1ccncc1	87	–
COc1cccc(NC(=O)NCCc2[nH]nc(-c3ccc(F)cc3)c2-c2ccncc2)c1	68	–
COc1ccc(CCN(CCC#N)C(=O)Cn2nc(-c3ccc(F)cc3)c(-c3ccncc3)c2C)cc1OC	72	–
Cc1c(-c2ccncc2)c(-c2ccc(F)cc2)nn1CC(=O)N(C)CC(N)=O	60	–
CC(C)C(=O)NCCCc1[nH]nc(-c2ccc(F)cc2)c1-c1ccncc1	79	–
O=C(NCCCc1[nH]nc(-c2ccc(F)cc2)c1-c1ccncc1)c1ccc(I)cc1	66	–
O=C(NCCCc1[nH]nc(-c2ccc(F)cc2)c1-c1ccncc1)[C@H]1CCCN1	81	–
COC(=O)C(Cc1ccc([N+](=O)[O-])cc1)NC(=O)Cn1nc(-c2ccc(F)cc2)c(-c2ccncc2)c1C (stereo not drawn)	75	–
Cc1c(-c2ccncc2)c(-c2ccc(F)cc2)nn1CC(=O)N1CCCC1	73	–

SMILES	inhibition (MAPK14 (human) [1]) [%]	other results
Cc1c(-c2ccncc2)c(-c2ccc(F)cc2)nn1CC(=O)NC1CCN(Cc2ccccc2)CC1	70	–
Cc1c(-c2ccncc2)c(-c2ccc(F)cc2)nn1CC(=O)NC1CCSc2ccccc21 (stereo not drawn)	76	–
O=C(NCCCc1[nH]nc(-c2ccc(F)cc2)c1-c1ccncc1)c1cccnc1	72	–
CCCCC(C)NC(=O)Cn1nc(-c2ccc(F)cc2)c(-c2ccncc2)c1C (stereo not drawn)	75	–
C[C@@H](NC(=O)NCc1[nH]nc(-c2ccc(F)cc2)c1-c1ccncc1)c1ccccc1	–	pIC50 (MAPK14 (human) [1]): 6.04
CCOC(=O)C[C@H](NC(=O)Cn1nc(-c2ccc(F)cc2)c(-c2ccncc2)c1C)C(=O)OCC	37	–
Cc1c(-c2ccncc2)c(-c2ccc(F)cc2)nn1CC(=O)N1CCCCC1	78	–
O=C(NCCCc1[nH]nc(-c2ccc(F)cc2)c1-c1ccncc1)c1ccno1	80	–
CC(=O)N1CCN(C(=O)Cn2nc(-c3ccc(F)cc3)c(-c3ccncc3)c2C)CC1	81	–
CC(C)OC(=O)NCCCc1[nH]nc(-c2ccc(F)cc2)c1-c1ccncc1	89	–
COC(=O)[C@H](COCc1ccccc1)NC(=O)Cn1nc(-c2ccc(F)cc2)c(-c2ccncc2)c1C	76	–
Cc1c(-c2ccncc2)c(-c2ccc(F)cc2)nn1CC(=O)NCC(=O)OC(C)(C)C	34	–
CC(C)(C)C(=O)NCCCc1[nH]nc(-c2ccc(F)cc2)c1-c1ccncc1	87	–
O=C(NCCCc1[nH]nc(-c2ccc(F)cc2)c1-c1ccncc1)C1CC1	77	–
Cc1c(-c2ccncc2)c(-c2ccc(F)cc2)nn1CC(=O)N[C@@H](C)c1cccc2ccccc12	74	–
Cc1c(-c2ccncc2)c(-c2ccc(F)cc2)nn1CC(=O)NC(C)CCc1ccccc1 (stereo not drawn)	35	–
Cc1c(-c2ccncc2)c(-c2ccc(F)cc2)nn1CC(=O)Nc1c(Cl)cccc1Cl	89	–
O=C(NCc1[nH]nc(-c2ccc(F)cc2)c1-c1ccncc1)c1ccc(F)c(F)c1	–	pIC50 (MAPK14 (human) [2]): 6.00; inhibition (MAPK14 (human) [2]): 26%
C[C@@H](NC(=O)c1ccncc1)c1[nH]nc(-c2ccc(F)cc2)c1-c1ccncc1	–	inhibition (MAPK14 (human) [2]): 36%
C[C@@H](NS(=O)(=O)C(F)(F)F)c1[nH]nc(-c2ccc(F)cc2)c1-c1ccncc1	–	inhibition (MAPK14 (human) [2]): 18%
CN(C)S(=O)(=O)NCc1[nH]nc(-c2ccc(F)cc2)c1-c1ccncc1	–	inhibition (MAPK14 (human) [2]): 18%
O=C(NCCc1[nH]nc(-c2ccc(F)cc2)c1-c1ccncc1)c1ccc(F)cc1C(F)(F)F	–	inhibition (MAPK14 (human) [2]): 29%
O=S(=O)(NCc1[nH]nc(-c2ccc(F)cc2)c1-c1ccncc1)c1ccc(F)cc1	–	pIC50 (MAPK14 (human) [2]): 5.56

SMILES	inhibition (MAPK14 (human) [1]) [%]	other results
C[C@@H](NS(=O)(=O)c1ccccc1Br)c1[nH]nc(-c2ccc(F)cc2)c1-c1ccncc1	–	inhibition (MAPK14 (human) [2]): 80%
c1cc(-c2c[nH]nc2-c2ccc3c(c2)OCO3)ccn1	–	pIC50 (MAPK14 (human) [2]): 6.38
C[C@@H](NC(=O)c1cccc(C(F)(F)F)c1)c1[nH]nc(-c2ccc(F)cc2)c1-c1ccncc1	–	inhibition (MAPK14 (human) [2]): 25%
C[C@H](NS(=O)(=O)c1ccc(C(F)(F)F)cc1)c1[nH]nc(-c2ccc(F)cc2)c1-c1ccncc1	–	inhibition (MAPK14 (human) [2]): 86%
CCCCS(=O)(=O)N[C@H](C)c1[nH]nc(-c2ccc(F)cc2)c1-c1ccncc1	–	inhibition (MAPK14 (human) [2]): 45%
CC(C)(C)C(=O)N[C@H](Cc1ccccc1)c1[nH]nc(-c2ccc(F)cc2)c1-c1ccncc1	–	pIC50 (MAPK14 (human) [2]): < 6.00
C[C@H](NC(=O)c1ccc(Cl)cc1)c1[nH]nc(-c2ccc(F)cc2)c1-c1ccncc1	–	inhibition (MAPK14 (human) [2]): 32%
CCCCOc1ccc(S(=O)(=O)NCCc2[nH]nc(-c3ccc(F)cc3)c2-c2ccncc2)cc1	–	inhibition (MAPK14 (human) [2]): 29%
Cc1c(C)c(S(=O)(=O)N[C@@H](C)c2[nH]nc(-c3ccc(F)cc3)c2-c2ccncc2)c(C)c2c1OC(C)(C)CC2	–	inhibition (MAPK14 (human) [2]): 87%
CC(=O)O[C@@H](C)C(=O)N[C@H](C)c1[nH]nc(-c2ccc(F)cc2)c1-c1ccncc1	–	inhibition (MAPK14 (human) [2]): 27%
C[C@@H](NC(=O)NCc1ccccc1)c1[nH]nc(-c2ccc(F)cc2)c1-c1ccncc1	–	pIC50 (MAPK14 (human) [2]): 5.62
O=S(=O)(NCCc1[nH]nc(-c2ccc(F)cc2)c1-c1ccncc1)c1cccc2cnccc12	–	inhibition (MAPK14 (human) [2]): 91%
Cc1cccc(S(=O)(=O)N2CCC(c3[nH]nc(-c4ccc(F)cc4)c3-c3ccncc3)CC2)c1	–	inhibition (MAPK14 (human) [2]): 1%
CC(=O)O[C@@H](C)C(=O)NCc1[nH]nc(-c2ccc(F)cc2)c1-c1ccncc1	–	pIC50 (MAPK14 (human) [2]): 5.19
C[C@H](NS(=O)(=O)c1ccc(-c2ccccc2)cc1)c1[nH]nc(-c2ccc(F)cc2)c1-c1ccncc1	–	inhibition (MAPK14 (human) [2]): 91%
CS(=O)(=O)N[C@H](Cc1ccccc1)c1[nH]nc(-c2ccc(F)cc2)c1-c1ccncc1	–	inhibition (MAPK14 (human) [2]): 17%
O=C(NCc1[nH]nc(-c2ccc(F)cc2)c1-c1ccncc1)c1cccc(Br)c1	–	inhibition (MAPK14 (human) [2]): 24%
Cc1cccc(C(=O)N[C@@H](C)c2[nH]nc(-c3ccc(F)cc3)c2-c2ccncc2)c1	–	inhibition (MAPK14 (human) [2]): 29%
C[C@H](NC(=O)N1CCCC1)c1[nH]nc(-c2ccc(F)cc2)c1-c1ccncc1	–	pIC50 (MAPK14 (human) [2]): 5.66
O=S(=O)(c1ccccc1F)N1CCC(c2[nH]nc(-c3ccc(F)cc3)c2-c2ccncc2)CC1	–	pIC50 (MAPK14 (human) [2]): 5.30
O=C(NCc1[nH]nc(-c2ccc(F)cc2)c1-c1ccncc1)c1cccc(Cl)c1	–	inhibition (MAPK14 (human) [2]): 32%
O=C(NCc1[nH]nc(-c2ccc(F)cc2)c1-c1ccncc1)Nc1ccccc1	–	inhibition (MAPK14 (human) [2]): 31%
O=C(NCCc1[nH]nc(-c2ccc(F)cc2)c1-c1ccncc1)c1ccc(Cl)cc1	–	inhibition (MAPK14 (human) [2]): 29%
